Experiments:
[1] = molecular target: recombinant APS3v-HLA-DR3 (Homo sapiens, UniProt P01903+P01911, A100K/A102G/A103R/F55Y/I96L/K41T/P40S/Q125H/Q178H/Q39Y/R42S/S66N/T106N/W38E/Y61H); assay: ELISA inhibition assay of biotinylated peptide binding to recombinant APS3v-HLA-DR3
Protocol: An in vitro binding assay was performed. […] On the day before the immunoassay was performed, a 96-well DELFIA yellow plate (PerkinElmer Life Science) was coated overnight with 20 μg/ml of L243 antibody [Hybridoma was purchased from ATCC, catalogue number HB-55, and IgG was purified by QED Bioscience (San Diego, CA)] in bicarbonate buffer, pH 9.6 (Sigma-Aldrich). L243 is a monoclonal antibody that specifically recognizes the DRa chain of HLA-DR when it is properly folded and complexed with the b chain. The plate was then washed with DELFIA wash buffer (diluted 1:25 from DELFIA wash concentrate, PerkinElmer) to wash off the excess L243 antibody. Blocking was performed using 2.5% BSA in PBS at room temperature for 1 h. After washing 4 times, 100 μl of the pre-incubated mix (containing recombinant APS3v-HLA-DR3 protein, APO, and small molecules) were added onto the plate and shaken at slow speed for 2 h at room temperature. After washing 4 times, DELFIA Europium-labeled streptavidin (PerkinElmer) diluted in DELFIA assay buffer (PerkinElmer) was added for 30 min and shaken at slow speed at room temperature. After washing for 6 times, DELFIA Enhancement Solution was added for 1 h until the optimal signal was reached. Time-resolved fluorescence was measured using the BMG reader (BMG Labtech, Cary, NC). A virtual screen identified 100 small molecules that were predicted to block the unique APS3v-HLA-DR3 pocket. To produce a manageable selection of compounds for validation we clustered the 100 compounds by their simplified molecular input line entry system (SMILES) similarity into 20 clusters. Of the 20 clusters we selected the top scoring members in each cluster. We have enhanced this list to include a total of 11 compounds that blocked APS3v-HLA-DR3, the key HLA-DR3 pocket that triggers APS3v. We tested the selected 11 small molecules identified by the virtual screen in our in vitro ELISA, to test whether the 11 small molecules can block APO peptide (the strongest known peptide binder to HLA-DR3) binding to recombinant APS3v-HLA-DR3. Of the 4 validated small molecules we selected S53 for further testing because it is the only one that has been used in humans before. […] ELISA was performed as previously described.

[2] = system: splenocytes and draining lymph node cells of immunized NOD-DR3 mice; assay: Small molecule inhibition of cytokine production ex vivo (Milliplex); type: cell-based, humanized NOD-DR3 mice
Protocol: Cytokine Assays: Milliplex mouse cytokines/chemokine magnetic panel (Catalog no. MCYTOMAG-70K, EMD Millipore Corporation, Billerica, MA) was used to assay the cytokines, as described in the art. Briefly, splenocytes were plated at 2×10^6 cells per well in 500 μl of medium (RPMI/10% FBS). Supernatants from stimulated lymphocytes were collected 48 h after stimulation with peptides and stored in −80° C. until the assay was performed. The 96-well plate supplied in the kit was washed with the wash buffer supplied and the plate was shaken for 10 min at room temperature. Standards and quality controls were added, followed by the samples. The pre-mixed beads (Interferon gamma and IL-2) were sonicated, vortexed and added to the wells. After shaking the plate overnight at 4° C., the plate was washed twice with wash buffer. Detection antibodies were added for 1 h at room temperature, and Streptavidin-Phycoerythrin was added for 30 min at room temperature. The plate was washed twice and sheath fluid was added to resuspend the beads for 5 min before reading in Luminex 200 with xPONENT software (Luminex, Austin, Texas).
Small Molecule Inhibition of Cytokine Production Ex Vivo: Eight NOD-DR3 mice were immunized with the three thyroidal/islet peptides. Upon sacrifice, splenocytes were incubated with 1 μM of small molecules (S5, S9, S15, S53) together with TPO.758 (20 μg/ml), GAD.492 (20 μg/ml) or Tg.1571 (20 μg/ml) respectively to assess the blockade of these peptides' presentation by the tested small molecules. Supernatants from stimulated lymphocytes were collected 48 h after stimulation with peptides and small molecules, and stored in −80° C. until the cytokine assay was performed. […]

Sequence of recombinant APS3v-HLA-DR3 (P01911 30-227 W38E/Q39Y/P40S/K41T/R42S/F55Y/Y61H/S66N/I96L/A100K/A102G/A103R/T106N/Q125H/Q178H): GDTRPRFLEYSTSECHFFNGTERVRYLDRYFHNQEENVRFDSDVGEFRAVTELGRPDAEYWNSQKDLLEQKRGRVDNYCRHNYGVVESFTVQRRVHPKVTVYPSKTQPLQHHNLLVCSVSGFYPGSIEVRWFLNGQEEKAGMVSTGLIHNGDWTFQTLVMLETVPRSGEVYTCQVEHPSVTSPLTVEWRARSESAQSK
Sequence of recombinant APS3v-HLA-DR3 (P01903 26-216): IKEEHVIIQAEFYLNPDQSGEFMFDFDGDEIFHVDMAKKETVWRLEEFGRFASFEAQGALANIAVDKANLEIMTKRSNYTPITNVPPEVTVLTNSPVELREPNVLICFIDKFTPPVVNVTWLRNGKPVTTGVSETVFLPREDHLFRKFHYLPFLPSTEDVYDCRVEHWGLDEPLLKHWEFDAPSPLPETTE

Compound: COc1ccc2cc1Oc1ccc(cc1)C[C@H]1c3c(cc4c(c3Oc3cc5c(cc3OC)CCN(C)[C@@H]5C2)OCO4)CCN1C [S53, Cepharanthine]
- inhibition of binding of the 3 peptides (TPO.758, GAD.492, Tg.1571) to the HLA-DR3 pocket ([1]; ELISA inhibition assay, final concentration 0.4 mM): significant inhibition of binding for all 3 peptides
- blocking of binding of biotinylated APO, TPO.758, GAD.492 and Tg.1571 to APS3v-HLA-DR3 ([1]; decreasing doses 0.4 mM, 0.2 mM, 0.1 mM, 0.05 mM): blocked the binding of each peptide in a dose-dependent manner
- IFN-g production in response to Tg.1571 ([2]; 1 μM small molecule + Tg.1571 20 μg/ml, 48 h): did not significantly reduce
- inhibition of T-cell activation to all 3 peptides (production of IFNγ and IL-2) ([2]; 1 micromolar, Tg.1571, GAD.492, TPO.758): consistently inhibited T-cell activation to all 3 peptides

Source: patent publication US20240342158A1, “METHOD OF TREATING AND/OR PREVENTING TYPE 1 DIABETES WITH CEPHARANTHINE” (ALBERT EINSTEIN COLLEGE OF MEDICINE, priority 2021, published 2024)
